Patent US20090048112A1, “Novel Herbicides” (SYNGENTA LIMITED, priority 2005, published 2009)

System: Monocotyledonous and dicotyledonous test plants
Assay: Example B3: herbicidal action prior to emergence (pre-emergence), 96-cell seed trays, 1000 g/ha
Assay type: in vivo
Set-up: key: 0 is no damage to plant; 5 is total damage to plant
Conditions: 9 days after application; for AGSTE herbicidal effect (visual assessment, scale 0-5): Agrostis tenius (Colonial bentgrass); for AMARE herbicidal effect (visual assessment, scale 0-5): Amaranthus retroflexus (redroot pigweed); for DIGSA herbicidal effect (visual assessment, scale 0-5): Digitaria sanguinalis (hairy finger-grass); for POATR herbicidal effect (visual assessment, scale 0-5): Poa trivialis (rough blue grass); for SETIT herbicidal effect (visual assessment, scale 0-5): Setaria italica (foxtail millet)
Protocol: Monocotyledonous and dicotyledonous test plants were sown in sterilised standard soil in seed trays each with 96 cells. The seed trays were stored under controlled conditions in a climatic chamber for one day (cultivation at 23° C. during the day and 17° C. at night; 13 hours of light; 50-60% humidity). The chemicals were applied to the soil surface. The application was carried out with an aqueous suspension of the test substances, prepared as a formulation in water with 10% dimethyl sulfoxide (CAS RN 67-68-5), to achieve a field equivalent of 1000 l/ha. The application rate of the test substances was 1000 g/ha. The plants were grown on in the climatic chamber for 9 days (cultivation at 24° C. during the day and 19° C. at night; 13 hours of light; 50-60% humidity). A visual assessment of the herbicidal effect was made at 9 days after application. The following scale was used for assessment: 0, 1, 2, 3, 4 and 5 (where 0 is no damage to plant and 5 is total damage to plant).

Structure (SMILES)	AGSTE herbicidal effect (visual assessment, scale 0-5)	AMARE herbicidal effect (visual assessment, scale 0-5)	DIGSA herbicidal effect (visual assessment, scale 0-5)	POATR herbicidal effect (visual assessment, scale 0-5)	SETIT herbicidal effect (visual assessment, scale 0-5)
C=C(F)COc1c(CS(=O)(=O)c2ncc(Cl)s2)c(C(F)(F)F)nn1C [Compound 1.125]	5	5	5	5	5
CCSc1c(CS(=O)(=O)c2ncc(Cl)s2)c(C(F)(F)F)nn1C [Compound No. 1.077, 5-chloro-2-(5-ethylsulfanyl-1-methyl-3-trifluoromethyl-1H-pyrazole-4-ylmethanesulfonyl)-thiazole]	5	3	5	5	4
CCS(=O)(=O)c1c(CS(=O)(=O)c2ncc(Cl)s2)c(C(F)(F)F)nn1C [Compound No. 1.081]	5	5	0	0	4
Cn1nc(C(F)(F)F)c(CS(=O)(=O)c2ncc(Cl)s2)c1S(C)(=O)=O [Compound No. 1.093]	5	4	5	5	3
Cn1nc(C(F)(F)F)c(CSc2ncc(Cl)s2)c1OCCCF [Compound No. 1.102]	5	2	4	0	2
Cn1cc(C(F)S(=O)(=O)c2ncc(Cl)s2)c(C(F)(F)F)n1 (stereo not shown) [Compound No. 1.110, 5-chloro-2-[fluoro-(1-methyl-3-trifluoromethyl-1H-pyrazol-4-yl)-methanesulfonyl]-thiazole]	0	4	4	4	5
Cn1nc(C(F)(F)F)c(CSc2ncc(Cl)s2)c1OC(CF)CF [Compound No. 1.112]	5	4	5	0	0
Cn1nc(C(F)(F)F)c(CSc2ncc(Cl)s2)c1OCC(F)F [Compound No. 1.115]	5	3	5	0	3
